Data reported in ChEMBL document CHEMBL1138074, “SAR studies of 2-methoxyestradiol and development of its analogs as probes of anti-tumor mechanisms” (Bioorg Med Chem Lett, 2006).

What follows are molecules tested on LNCaP (assay: Antiproliferative activity against human LNCaP cell line). Settings: Homo sapiens, LNCaP; read-out: IC50; call rule not given here.
Type: functional, cell-based

IC50 [nM]	SMILES
900	COc1cc2c(cc1O)CC[C@@H]1[C@@H]2CC[C@]2(C)[C@@H](OC(=O)CN)CC[C@@H]12
600	COc1cc2c(cc1O)CC[C@@H]1[C@@H]2CC[C@]2(C)[C@@H](OC(=O)CNC(=O)CCCCCNC(=O)OC(C)(C)C)CC[C@@H]12
600	COc1cc2c(cc1O)CC[C@@H]1[C@@H]2CC[C@]2(C)[C@@H](OC(=O)CNC(=O)CCCCCN)CC[C@@H]12

The next lines start with the molecule.

SMILES	IC50 [nM]
COc1cc2c(cc1O)CC[C@@H]1[C@@H]2CC[C@]2(C)[C@@H](O)CC[C@@H]12 [2-METHOXYESTRADIOL]	500
COc1cc2c(cc1O)CC[C@@H]1[C@@H]2CC[C@]2(C)[C@@H](OC(=O)CNC(=O)CCCCCNC(=O)CCCC[C@@H]3SC[C@@H]4NC(=O)N[C@@H]43)CC[C@@H]12	600

Same assay, conditions: lncap

IC50	SMILES
Not Active	COc1cc2c(cc1O)CC[C@@H]1[C@@H]2CC[C@]2(C)[C@@H](OC(=O)CNC(=O)OCC3c4ccccc4-c4ccccc43)CC[C@@H]12
